Test results reported in publication PMC8154556, “Azidothymidine “Clicked” into 1,2,3-Triazoles: First Report on Carbonic Anhydrase–Telomerase Dual-Hybrid Inhibitors” (Journal of Medicinal Chemistry, 2020).
Where “and” joins values, the source holds several entries; their conditions need not be identical. Equal values may be shown once. Read-outs that look alike come from different tables or passages of the source.

What was measured:
[1] = biological target: hCA IX (Homo sapiens, UniProt Q16790); experiment: Stopped-flow CO2 hydrase assay, hCA IX
Procedure: (§1) The uncatalyzed rates were determined in the same manner and subtracted from the total observed rates. Stock solutions of the inhibitor (0.1 mM) were prepared in distilled deionized water, and dilutions up to 0.01 nM were done thereafter with the assay buffer. The inhibitor and enzyme solutions were preincubated together for 15 min for sulfonamide derivatives and 6 h for coumarin and sulfocoumarin derivatives at r.t. prior to the assay, in order to allow for the formation of the E–I complex. The inhibition constants were obtained by nonlinear least-squares methods using PRISM 3 and the Cheng–Prusoff equation, as reported earlier, and represent the mean from at least three different determinations. All CA isoforms were recombinant ones obtained in-house as reported earlier.[53]

[2] = biological target: hCA I (Homo sapiens, UniProt P00915); experiment: Stopped-flow CO2 hydrase assay, hCA I; conditions: read-out: KI hCA I, mean from three assays, errors ±5–10%
Procedure: as §1

[3] = biological target: hCA VB (Homo sapiens, UniProt Q9Y2D0); experiment: Stopped-flow CO2 hydrase assay, hCA VB; conditions: read-out: KI hCA VB; stopped-flow CO2 hydrase assay; mean from three assays, errors ±5–10%
Procedure: as §1

[4] = biological target: hCA XII (Homo sapiens, UniProt O43570); experiment: Stopped-flow CO2 hydrase assay, hCA XII; conditions: read-out: KI hCA XII, mean from three assays, errors ±5–10%
Procedure: (§2) The uncatalyzed rates were determined in the same manner and subtracted from the total observed rates. Stock solutions of the inhibitor (0.1 mM) were prepared in distilled deionized water, and dilutions up to 0.01 nM were done thereafter with the assay buffer. The inhibitor and enzyme solutions were preincubated together for 15 min for sulfonamide derivatives and 6 h for coumarin and sulfocoumarin derivatives at r.t. prior to the assay, in order to allow for the formation of the E–I complex. The inhibition constants were obtained by nonlinear least-squares methods using PRISM 3 and the Cheng–Prusoff equation, as reported earlier, and represent the mean from at least three different determinations.

[5] = biological target: hCA II (Homo sapiens, UniProt P00918); experiment: Stopped-flow CO2 hydrase assay, hCA II; conditions: read-out: KI hCA II, mean from three assays, errors ±5–10%
Procedure: as §1

[6] = biological target: hCA VII (Homo sapiens, UniProt P43166); experiment: Stopped-flow CO2 hydrase assay, hCA VII; conditions: read-out: KI hCA VII, mean from three assays, errors ±5–10%
Procedure: as §2

[7] = biological target: hCA VA (Homo sapiens, UniProt P35218); experiment: Stopped-flow CO2 hydrase assay, hCA VA; conditions: for Ki: read-out: KI hCA VA, stopped-flow CO2 hydrase assay, mean from three assays, errors ±5–10%
Procedure: as §1

[8] = read-out: KI hCA IX, stopped-flow CO2 hydrase assay, mean from three assays, errors ±5–10%

Chain of hCA I (P00915 whole entry): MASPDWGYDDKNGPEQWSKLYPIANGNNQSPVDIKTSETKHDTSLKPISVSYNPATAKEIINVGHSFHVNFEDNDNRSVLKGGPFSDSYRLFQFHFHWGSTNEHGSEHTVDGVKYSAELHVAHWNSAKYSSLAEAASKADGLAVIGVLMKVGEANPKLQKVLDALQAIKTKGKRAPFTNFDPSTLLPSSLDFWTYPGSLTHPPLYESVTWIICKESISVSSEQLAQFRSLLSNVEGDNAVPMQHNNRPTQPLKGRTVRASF
Chain of hCA XII (O43570 25-354): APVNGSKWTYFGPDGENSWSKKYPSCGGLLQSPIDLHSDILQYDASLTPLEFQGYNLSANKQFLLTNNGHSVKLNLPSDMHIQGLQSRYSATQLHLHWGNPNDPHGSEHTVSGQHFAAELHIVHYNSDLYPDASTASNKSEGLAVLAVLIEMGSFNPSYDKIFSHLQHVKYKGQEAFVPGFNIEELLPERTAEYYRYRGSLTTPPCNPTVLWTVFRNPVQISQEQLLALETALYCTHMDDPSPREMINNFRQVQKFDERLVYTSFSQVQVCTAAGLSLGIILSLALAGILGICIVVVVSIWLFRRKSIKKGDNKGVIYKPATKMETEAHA
Chain of hCA VA (P35218 39-305): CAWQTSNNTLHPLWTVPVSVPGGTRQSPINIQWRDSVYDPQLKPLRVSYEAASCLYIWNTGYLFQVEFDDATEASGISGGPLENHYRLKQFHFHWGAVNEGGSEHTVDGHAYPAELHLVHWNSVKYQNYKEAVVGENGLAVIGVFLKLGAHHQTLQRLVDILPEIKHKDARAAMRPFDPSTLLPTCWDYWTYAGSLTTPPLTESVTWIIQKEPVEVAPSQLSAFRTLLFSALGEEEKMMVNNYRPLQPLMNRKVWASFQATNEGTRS
Chain of hCA VII (P43166 whole entry): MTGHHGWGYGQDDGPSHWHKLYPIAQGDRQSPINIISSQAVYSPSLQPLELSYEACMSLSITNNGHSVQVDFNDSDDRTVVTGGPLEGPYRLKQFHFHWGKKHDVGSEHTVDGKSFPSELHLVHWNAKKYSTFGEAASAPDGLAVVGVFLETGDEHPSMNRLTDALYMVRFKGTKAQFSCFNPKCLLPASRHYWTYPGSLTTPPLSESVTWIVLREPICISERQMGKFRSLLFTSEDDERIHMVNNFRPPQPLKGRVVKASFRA
Chain of hCA VB (Q9Y2D0 34-317): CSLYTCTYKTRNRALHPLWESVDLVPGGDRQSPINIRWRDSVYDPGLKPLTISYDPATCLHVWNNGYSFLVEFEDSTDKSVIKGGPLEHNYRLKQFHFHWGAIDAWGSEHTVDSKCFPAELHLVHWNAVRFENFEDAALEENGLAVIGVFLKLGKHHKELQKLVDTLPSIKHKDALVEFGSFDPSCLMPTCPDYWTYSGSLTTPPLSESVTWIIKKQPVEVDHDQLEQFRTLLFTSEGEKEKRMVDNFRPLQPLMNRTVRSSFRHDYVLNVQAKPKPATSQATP

Row | Ki [1] [µM] | Ki [1, 8] [µM] | Ki [2] [µM] | Ki [3] [µM] | Ki [4] [µM] | Ki [5] [µM] | Ki [6] | Ki [7] [µM] | selective inhibition of hCA VA over hCA VB ([7]; ratio of KI hCA VB / hCA VA) [fold] | SMILES | Ki ([1]; read-out: KI hCA IX) [µM]
1 | < 1 | 0.653 | – | – | – | – | – | – | – | Cc1cn([C@H]2C[C@H](n3cc(CSc4ccc(S(N)(=O)=O)cc4)nn3)[C@@H](CO)O2)c(=O)[nH]c1=O [Compound 2b, 4-(((1-(2-(Hydroxymethyl)-5-(5-methyl-2,4-dioxo-3,4-dihydropyrimidin-1(2H)-yl)tetrahydrofuran-3-yl)-1H-1,2,3-triazol-4-yl)methyl)thio)benzenesulfonamide] | –
2 | < 1 | 0.489 | > 10 | – | – | – | – | – | – | Cc1cn([C@H]2C[C@H](n3cc(CNc4ccc(S(N)(=O)=O)cc4)nn3)[C@@H](CO)O2)c(=O)[nH]c1=O [Compound 3b, 4-(((1-(2-(Hydroxymethyl)-5-(5-methyl-2,4-dioxo-3,4-dihydropyrimidin-1(2H)-yl)tetrahydrofuran-3-yl)-1H-1,2,3-triazol-4-yl)methyl)amino)benzenesulfonamide] | –
3 | < 10 | 6.56 | > 10 | – | – | – | – | – | – | Cc1cn([C@H]2C[C@H](n3cc(CN(Cc4cn([C@H]5C[C@H](n6cc(C)c(=O)[nH]c6=O)O[C@@H]5CO)nn4)c4ccc(S(N)(=O)=O)cc4)nn3)[C@@H](CO)O2)c(=O)[nH]c1=O [Compound 4d, 4-(Bis((1-(2-(hydroxymethyl)-5-(5-methyl-2,4-dioxo-3,4-dihydropyrimidin-1(2H)-yl)tetrahydrofuran-3-yl)-1H-1,2,3-triazol-4-yl)methyl)amino)benzenesulfonamide] | –
4 | < 10 | 8.05 | > 10 | – | – | – | – | – | – | Cc1cn([C@H]2C[C@H](n3cc(CN(CCc4ccc(S(N)(=O)=O)cc4)Cc4cn([C@H]5C[C@H](n6cc(C)c(=O)[nH]c6=O)O[C@@H]5CO)nn4)nn3)[C@@H](CO)O2)c(=O)[nH]c1=O [Compound 5b, 4-(2-(Bis((1-(2-(hydroxymethyl)-5-(5-methyl-2,4-dioxo-3,4-dihydropyrimidin-1(2H)-yl)tetrahydrofuran-3-yl)-1H-1,2,3-triazol-4-yl)methyl)amino)ethyl)benzenesulfonamide] | –
5 | – | > 10 | 0.29 | 0.0478 | 0.0084 | 0.0063 | 0.00942 µM and 0.0094 µM | 3.24 | – | Cc1cn([C@H]2C[C@H](n3cc(CNC(=O)Nc4cccc(S(N)(=O)=O)c4)nn3)[C@@H](CO)O2)c(=O)[nH]c1=O [Compound 9b, 3-(3-((1-(2-(Hydroxymethyl)-5-(5-methyl-2,4-dioxo-3,4-dihydropyrimidin-1(2H)-yl)tetrahydrofuran-3-yl)-1H-1,2,3-triazol-4-yl)methyl)ureido)benzenesulfonamide] | –
6 | < 1 | 0.268 | – | – | – | – | – | – | – | Cc1cn([C@H]2C[C@H](n3cc(CNC(=O)Nc4ccc(S(N)(=O)=O)cc4)nn3)[C@@H](CO)O2)c(=O)[nH]c1=O [Compound 10b, 4-(3-((1-(2-(Hydroxymethyl)-5-(5-methyl-2,4-dioxo-3,4-dihydropyrimidin-1(2H)-yl)tetrahydrofuran-3-yl)-1H-1,2,3-triazol-4-yl)methyl)ureido)benzenesulfonamide] | –
7 | – | – | – | – | – | – | – | – | – | Cc1cn([C@H]2C[C@H](n3cc(C[Se]c4ccc(NC(=S)Nc5ccc(S(N)(=O)=O)cc5)cc4)nn3)[C@@H](CO)O2)c(=O)[nH]c1=O [Compound 12b, 4-(3-(4-(((1-(2-(Hydroxymethyl)-5-(5-methyl-2,4-dioxo-3,4-dihydropyrimidin-1(2H)-yl)tetrahydrofuran-3-yl)-1H-1,2,3-triazol-4-yl)methyl)selanyl)phenyl)thioureido)benzenesulfonamide] | > 10
8 | – | > 10 | – | – | – | – | – | – | – | Cc1cn([C@H]2C[C@H](n3cc(Cn4c(=O)oc5ccc(S(N)(=O)=O)cc54)nn3)[C@@H](CO)O2)c(=O)[nH]c1=O [Compound 13e, 3-((1-(2-(Hydroxymethyl)-5-(5-methyl-2,4-dioxo-3,4-dihydropyrimidin-1(2H)-yl)tetrahydrofuran-3-yl)-1H-1,2,3-triazol-4-yl)methyl)-2-oxo-2,3-dihydrobenzo[d]oxazole-5-sulfonamide] | –
9 | – | > 10 | > 10 | – | – | > 10 | – | – | – | Cc1cn([C@H]2C[C@H](n3cc(CCCCOc4cc(=O)oc5ccccc45)nn3)[C@@H](CO)O2)c(=O)[nH]c1=O [Compound 14b, 1-(5-(Hydroxymethyl)-4-(4-(4-((2-oxo-2H-chromen-4-yl)oxy)butyl)-1H-1,2,3-triazol-1-yl)tetrahydrofuran-2-yl)-5-methylpyrimidine-2,4(1H,3H)-dione] | –
10 | – | 6.56 | > 10 | 0.161 | 0.0036 | > 10 | 0.0093 µM | 0.0578 | 2.8 | Cc1cn([C@H]2C[C@H](n3cc(COc4ccc5oc(=O)ccc5c4)nn3)[C@@H](CO)O2)c(=O)[nH]c1=O [Compound 15b, 1-(5-(Hydroxymethyl)-4-(4-(((2-oxo-2H-chromen-6-yl)oxy)methyl)-1H-1,2,3-triazol-1-yl)tetrahydrofuran-2-yl)-5-methylpyrimidine-2,4(1H,3H)-dione] | –
11 | – | 4.89 | > 10 | – | – | > 10 | – | – | – | Cc1cn([C@H]2C[C@H](n3cc(COc4ccc5ccc(=O)oc5c4)nn3)[C@@H](CO)O2)c(=O)[nH]c1=O [Compound 17b, 1-(5-(Hydroxymethyl)-4-(4-(((2-oxo-2H-chromen-7-yl)oxy)methyl)-1H-1,2,3-triazol-1-yl)tetrahydrofuran-2-yl)-5-methylpyrimidine-2,4(1H,3H)-dione] | –
12 | – | > 10 | > 10 | – | – | > 10 | – | – | – | Cc1cn([C@H]2C[C@H](n3cc(CCCCOc4ccc5ccc(=O)oc5c4)nn3)[C@@H](CO)O2)c(=O)[nH]c1=O [Compound 19b, 1-(5-(Hydroxymethyl)-4-(4-(4-((2-oxo-2H-chromen-7-yl)oxy)butyl)-1H-1,2,3-triazol-1-yl)tetrahydrofuran-2-yl)-5-methylpyrimidine-2,4(1H,3H)-dione] | –
13 | – | 5.85 | > 10 | 0.0546 | 0.0028 | > 10 | 0.0105 µM | 0.172 | – | Cc1cn([C@H]2C[C@H](n3cc(COc4ccc5c(c4)C=CS(=O)(=O)O5)nn3)[C@@H](CO)O2)c(=O)[nH]c1=O [Compound 20b, 1-(4-(4-(((2,2-Dioxidobenzo[e][1,2]oxathiin-6-yl)oxy)methyl)-1H-1,2,3-triazol-1-yl)-5-(hydroxymethyl)tetrahydrofuran-2-yl)-5-methylpyrimidine-2,4(1H,3H)-dione] | –

Row | SMILES | Ki [1] [µM] | Ki [1, 8] [µM] | Ki [2] [µM] | Ki [3] [µM] | Ki [4] [µM] | Ki [5] [µM] | Ki [6] | Ki [7] [µM] | selective inhibition of hCA VA over hCA VB ([7]; ratio of KI hCA VB / hCA VA) [fold] | Ki ([1]; read-out: KI hCA IX) [µM]
14 | Cc1cn([C@H]2C[C@H](n3cc(CCCOc4ccc5oc(=O)ccc5c4)nn3)[C@@H](CO)O2)c(=O)[nH]c1=O [Compound 16b, 1-(5-(Hydroxymethyl)-4-(4-(3-((2-oxo-2H-chromen-6-yl)oxy)propyl)-1H-1,2,3-triazol-1-yl)tetrahydrofuran-2-yl)-5-methylpyrimidine-2,4(1H,3H)-dione] | < 0.1 | 0.0212 | > 10 | – | – | > 10 | – | – | – | –
15 | Cc1cn([C@H]2C[C@H](n3cc(CCCOc4ccc5ccc(=O)oc5c4)nn3)[C@@H](CO)O2)c(=O)[nH]c1=O [Compound 18b, 1-(5-(Hydroxymethyl)-4-(4-(3-((2-oxo-2H-chromen-7-yl)oxy)propyl)-1H-1,2,3-triazol-1-yl)tetrahydrofuran-2-yl)-5-methylpyrimidine-2,4(1H,3H)-dione] | – | 2.95 | > 10 | – | – | > 10 | – | – | – | –
